Reference: patent US11413261B2, “Pharmaceutical composition for treating cancer comprising lactate metal salt” (METIMEDI PHARMACEUTICALS CO., LTD, priority 2014, dated 2022)

How the values were obtained:
[1] = tested on: cancer cell; assay: Dissociation of metal lactate salts to lactate in a cancer cell; assay type: cell-based
[2] = tested on: human colorectal cancer cell lines (HCT-116 and HT-29); assay: pH inside and outside cancer cell; assay type: cell-based; details: 2.5 mM
Protocol: Specifically, with the cells cultured in Example 2-1, an extracellular pH was measured with a pH meter from the medium for the cells treated with calcium lactate and then cultured and an intracellular pH was measured with a pH detection kit (Life Technologies, CA) from the cells treated with calcium lactate and then cultured (FIG. 4). In this case, cancer cells untreated with calcium lactate were used as control groups.

[3] = tested on: β-catenin; assay: β-catenin and activated β-catenin protein expression in breast cancer cell lines; assay type: cell-based, human; details: MCF-7 and MDA-MB-231; with increasing concentration
Protocol: Using the same method as that of Example 3-1 the expression levels of β-catenin and activated β-catenin depending on the concentration of calcium lactate were compared at the protein expression level (FIG. 6) with a human breast cancer cell line (MCF-7) cultured in a cancer cell culture medium (RPMI1640 medium including 10% FBS and 1% penicillin/streptomycin) at 37° C. with 5% CO2 and a human breast cancer cell line (MDA-MB-231) cultured in another cancer cell culture medium (DMEM medium including 10% FBS and 1% penicillin/streptomycin) at 37° C. with 5% CO2.

[4] = tested on: PDH (pyruvate dehydrogenase); assay: PDH protein expression (immunofluorescence); assay type: cell-based, human; details: HCT-116 and HT-29; 2.5 mM, 24 hours
Protocol: After the same method as that of Example 6-1 except that an anti-rabbit PDH antibody was used instead of the anti-rabbit LDHB antibody was performed, protein expression levels of PDH in human colorectal cancer cell lines (HCT-116 and HT-29) treated with calcium lactate were measured (FIG. 13).

[5] = tested on: breast cancer cell lines (MCF-7 and MDA-MB231); assay: Cell migration of breast cancer cell lines; assay type: cell-based; details: 2.5 mM, vs untreated
Protocol: (§1) A colorectal cancer cell line HCT-116 with the cell number of 4×10^5 cells was inoculated into a culture container at the center of which an ibidi culture insert having a thickness of 500 μm was placed, and treated with 2.5 mM calcium lactate and then cultured for 24 hours. Then, the insert was removed and further cultured for 12 hours to analyze migration of the cancer cells to a site where the insert was removed using a JuLi Br, Live cell analyzer (NanoEnTek Inc., South Korea) (FIG. 18). In this case, a colorectal cancer cell line cultured without treating with calcium lactate was used as a control group.
Using the same method as Example 8-1, with breast cancer cell lines (MCF-7 and MDA-MB231) instead of the colorectal cancer cell line, an effect of calcium lactate on migration of the breast cancer cell lines was examined (FIG. 19).

[6] = tested on: melanoma cell lines (SKMEL-02 and SKMEL-28); assay: Cell migration of melanoma cell lines; assay type: cell-based; details: 2.5 mM, 24 hours after insert removal, vs untreated
Protocol: as §1
Using the same method as Example 8-1, with melanoma cell lines (SKMEL-02 and SKMEL-28) instead of the colorectal cancer cell line and further cultured for 24 hours after removal of the insert was performed, the effect of calcium lactate on migration of the melanoma cell lines was examined (FIG. 20).

[7] = tested on: human colorectal cancer cell lines (HCT-116, HT-29, and DLD-1); assay: Colony-forming ability of colorectal cancer cell lines in solid medium; assay type: cell-based; details: HCT-116, HT-29, DLD-1; with increasing concentration (0.5, 1.5, 2.5 mM), 10 days
Protocol: Firstly, human colorectal cancer cell lines (HCT-116, HT-29, and DLD-1) were inoculated into solid mediums including various concentrations (0 mM, 0.5 mM, 1.5 mM, or 2.5 mM) of calcium lactate and cultured for 10 days. After the completion of the culture, the cells were immobilized and stained with hematoxylin. Then, the number of cancer cells formed into colonies was counted (FIG. 23).

[8] = tested on: colorectal cancer cell (HT-29); assay: Tumor volume and morphology in HT-29 implanted animal model; assay type: in vivo, Balb/c mice
Protocol: (§2) A colorectal cancer cell (HT-29) cultured in an RPMI1640 medium and then diluted with PBS was subcutaneously implanted into the flank of Balb/c mice. The mice were bred until the colorectal cancer cell grew to about 5 mm. Then, four groups were set up; a control group untreated with calcium lactate for 30 days, an experimental group 1 (peroral, P.O.) administered with 2.5 mM calcium lactate by oral administration, an experimental group 2 (intra tumor, I.T) injected with 2.5 mM calcium lactate around tumor, and an experimental group 3 (subcutaneous, S.C) subcutaneously injected with 25 mM calcium lactate (FIG. 27).
The volumes of colorectal cancer tissues extracted from the mice of the control group or the experimental group 1 set up in Example 10-1 were measured over time and compared with each other (FIG. 30).
The volumes of colorectal cancer tissues extracted from the mice of the control group or the experimental group 2 set up in Example 10-1 were measured over time and compared with each other (FIG. 32).
The tumor morphologies of the mice of the control group or the experimental group 2 set up in Example 10-1 were compared with each other (FIG. 33).
The volumes of colorectal cancer tissues extracted from the mice of the control group or the experimental group 3 set up in Example 10-1 were measured over time and compared with each other (FIG. 34).
The tumor morphologies of the mice of the control group or the experimental group 3 set up in Example 10-1 were compared with each other (FIG. 35).

[9] = tested on: VEGF; assay: VEGF expression in tumor tissues of animal model; assay type: in vivo, Balb/c mice; details: HT-29 tumor tissue
Protocol: as §2
(§3) Colorectal cancer tissues were extracted from the mice of the control group or the experimental group 1 set up in Example 10-1, and expression levels of HIF-1α and VEGF involved in metastasis, invasion, and angiogenesis of tumor expressed therein were compared (FIG. 29). In this case, GAPDH was used as internal control groups.
as §3, with “group 2” for “group 1”, “tumor” for “tumor expressed”, “(FIG. 31).” for “(FIG. 29).”

[10] = tested on: human liver cancer cell line (Hep3B); assay: Colony-forming ability, anticancer drug in combination with calcium lactate (6-well plates); assay type: cell-based; details: 2.5 mM calcium lactate alone, vs control
Protocol: Human liver cancer cell line (Hep3B) with the cell number of 1×10^3 cells were seeded into an RPMI1640 medium in each of 6-well plates. After one day, the medium was replaced with fresh medium and the cells were treated with 2.5 mM calcium lactate or 1 μM, 2.5 μM, and 5 μM Sorafenib alone or treated with various concentrations (1 μM, 2.5 μM, and 5 μM) of Sorafenib in combination with 2.5 mM calcium lactate. Then, the colony-forming abilities of the cells were compared. In this case, a human liver cancer cell line (Hep3B) untreated with any drug was used as a control group (FIGS. 45a and 45b).

[11] = tested on: human colorectal cancer cell line HCT-116; details: 5 mM calcium lactate individually, 10 days

Q: With `CC(O)C(=O)[O-].CC(O)C(=O)[O-].[Ca+2]` (stereo not shown) [calcium lactate] as the compound, how does the “dissociation to lactate in a cancer cell” value [1] read?
A: can be dissociated to lactate

Q: And the “intracellular pH” value ([2]; pH detection kit)?
A: decreased to acidic condition

Q: And the “extracellular pH” value ([2]; pH meter, medium)?
A: not changed

Q: And the “protein expression levels of activated β-catenin” value [3]?
A: decreased

Q: And the “protein expression levels of β-catenin” value [3]?
A: decreased

Q: What about the “protein expression levels of PDH” value [4] of the same compound?
A: sharply increased

Q: And the “cell migration (metastatic capacity)” value [5]?
A: relatively low levels of metastasis

Q: And the “cell migration (metastatic capacity)” value [6]?
A: relatively low levels of metastasis

Q: And the number of colonies [7]?
A: decreased

Q: And the tumor morphology ([8]; 2.5 mM injected around tumor)?
A: decreased in size with decreased angiogenesis

Q: And the tumor morphology ([8]; 25 mM subcutaneously injected)?
A: greatly decreased in size and angiogenesis is also reduced

Q: What about the final tumor volume ([8]; 25 mM subcutaneously injected, 30 days (control about 2300)) of the same compound?
A: about 80 mm^3

Q: And the “expression of VEGF” value ([9]; experimental group 1, 2.5 mM oral administration)?
A: inhibited

Q: And the “expression of VEGF” value ([9]; experimental group 2, 2.5 mM injected around tumor)?
A: inhibited

Q: What about the colony-forming ability [10] of the same compound?
A: suppressed

Q: What about the survival rate [11] of the same compound?
A: about 60%
